From patent publication US20090023666A1, “Modulators of Hypoxia Inducible Factor-1 and Related Uses” (priority 2006, published 2009)
“Also recorded” adds a separate entry of the source. Read-outs that look alike come from different tables or passages of the source.

Key:
HIF-1α [1] = assay: Inhibition of hypoxia-mediated HIF-1α induction (immunoblotting); format: cell-based, human; settings: Caki-1 or Panc-1 cells under hypoxia
HIF-1α [2] = assay: Inhibition of HIF-1α induced under normoxia by PHD inhibitor L-mimosone (Western blotting); format: cell-based; settings: Hep3B cells, 200 μM L-mimosone 18 hours
Description: Abundance of HIF1α and β-actin was determined by Western blotting.

tumor cell lines = assay: Anti-proliferative activity in tumor cell lines (panel); format: cell-based, human; settings: for IC50: Homo sapiens, read-out: IC50 range over the tumor cell lines
Description: (§1) FIG. 8 is a graph depicting the mRNA levels of α-1 and α-3 isoforms quantitated by real time RT-PCR (TaqMan) using fluorescent labeled TaqMan probes. Anti-proliferation (IC50 values) activity of BNC4 on indicated cell lines was determined by MTS assay. Total alpha levels (al+a3) were plotted against (1/IC50) X100 values.

DU145 = assay: Anti-proliferative activity, DU145; format: cell-based; settings: Homo sapiens
Description: as §1

LnCaP = assay: Anti-proliferative activity, LnCaP; format: cell-based; settings: Homo sapiens, read-out: Anti-Proliferative activity IC50
Description: as §1

PC3 = assay: Anti-proliferative activity, PC3; format: cell-based; settings: Homo sapiens
Description: as §1

P388 = assay: Anti-proliferative activity, P388; format: cell-based; settings: Mus musculus
Description: as §1

SNB-78 = assay: Anti-proliferative activity, SNB-78; format: cell-based; settings: Homo sapiens
Description: as §1

Panc-1 (PANC) = assay: Anti-proliferative activity (APA), Panc-1; format: cell-based; settings: Homo sapiens
Description: as §1

A549 sentinel line = assay: Hypoxic stress response induced by cytotoxic agents in A549 sentinel line; format: cell-based; settings: in the presence of Gemcitabine
Description: FIGS. 7A-7E are graphs depicting the stress response of A549 Sentinel Line induced by treatment with Gemcitabine (FIG. 7A) or Gemcitabine in the presence of indicated compound (FIG. 7B-7D). Untreated (control) sample is shown in shadow. […] Similar results can be achieved for other chemotherapeutic agents which induce hypoxic stress, such as paclitaxel, carboplatin, and mitoxantrone.
Similar results were obtained with carboplatin (not shown).

[3] = Pharmacokinetics following IP administration in mice; format: in vivo; settings: for tlast / Tmax: i.p.; for half-life: read-out: t1/2 (terminal elimination half-life) (converted)
Description: FIG. 13 is a graph depicting the pharmacokinetic profiled of BNC4, BP228 and BP244 in mice. The compounds were administered by intraperitoneal (i.p) injection at 2.5 mg/kg and 5.0 mg/kg for BP228 and at 5.0 mg/kg for BNC4 and BP244. The plasma samples were collected at various time points and concentration of compounds was analyzed by LC-MS. Pharmacokinetic parameters are provided in Example 23.
The compounds were administered by intraperitoneal (i.p) injection at 2.5 mg/kg and 5.0 mg/kg for BP228 and at 5.0 mg/kg for BNC4 and BP244. The plasma samples were collected at various time points and concentration of compounds was analyzed by LC-MS.

[4] = cited from earlier work
Na-K-ATPase = Na-K-ATPase enzyme assay (inorganic phosphate liberated from ATP), pig brain; format: biochemical; settings: pig brain
Description: Compounds were tested for their activity on Na-K-ATPase enzyme in an in vitro enzyme assay. The ATPase activity was assayed as the amount of inorganic phosphate liberated from ATP by Dog Kidney or Porcine cerebral cortex Na-K-ATPase.

Caki-1 tumors = assay: In vivo activity against renal cancer cell line Caki-1 xenograft; settings: Caki-1 bearing nude mice
Description: Female nude mice (nu/nu) between 5 and 6 weeks of age weighing approximately 20 g were implanted subcutaneously (s.c.) by trocar with fragments of human tumors harvested from s.c. grown tumors in nude mice hosts. When the tumors were approximately 60-75 mg in size (about 10-15 days following inoculation), the animals were pair-matched into treatment and control groups. Each group contained 8-10 mice. The administration of drugs or controls began on the day the animals were pair-matched (Day 1). Pumps (Alzet® Model 2002) with a flow rate of 0.5 μl/hr were implanted s.c. between the shoulder blades of each mice. Mice were weighed and tumor measurements were obtained using calipers twice weekly, starting Day 1. These tumor measurements were converted to mg tumor weight by standard formula, (W^2XL)/2. The experiment was terminated when the control group tumor size reached an average of about 1 gram. Upon termination, the mice were weighed, sacrificed and their tumors excised. The tumors were weighed and the mean tumor weight per group was calculated.

[5] = mouse, plasma, ip, 5 mg/kg, 5 mg/kg, read-out: tmax
[6] = DU-145, read-out: Anti-Proliferative activity IC50
[7] = PC-3, read-out: Anti-Proliferative activity IC50
[8] = P388, read-out: Anti-Proliferative activity IC50
[9] = SNB-78, read-out: Anti-Proliferative activity IC50
[10] = PANC-1, read-out: Anti-Proliferative activity IC50

| SMILES | stress response in A549 sentinel line induced by Gemcitabine (A549 sentinel line) | tlast ([3]; 5 mg/kg) [h] | AUC ([3]; mouse, plasma, ip, 5 mg/kg) [ng·h/mL] | Cmax ([3]; mouse, plasma, ip, 5 mg/kg) [ng/mL] | Tmax [3, 5] [min] | half-life ([3]; mouse, plasma, ip, 5 mg/kg) [min] | IC50 (tumor cell lines) [nM] | IC50 (DU145; [6]) [nM] | IC50 (LnCaP; LNCaP) [nM] | IC50 (PC3; [7]) [nM] | IC50 (P388; [8]) [nM] | IC50 (SNB-78; [9]) [nM] | IC50 (Panc-1 (PANC); [10]) [nM] | also measured |
| --- | --- | --- | --- | --- | --- | --- | --- | --- | --- | --- | --- | --- | --- | --- |
| C[C@@H]1O[C@@H](O[C@@H]2C=C3CC[C@@H]4[C@H](CC[C@]5(C)[C@@H](c6ccc(=O)oc6)CC[C@]45O)[C@@]3(C)CC2)[C@H](O)[C@H](O)[C@H]1O [BNC4, proscillaridin, reference compound] | can inhibit the stress response | 6 | 4570 | 3610 | 15 | 48 |  |  |  |  |  |  |  | potency in inhibiting HIF-1α expression relative to BNC1 (HIF-1α [1]): about 10 times; HIF-1α accumulation by L-mimosone (HIF-1α [2]): blocks HIF-1α induction; also recorded: eliminated HIF-1α accumulation by L-mimosone; IC50 (tumor cell lines; range over cell lines of Table 2): 418 nM; sensitivity of cell lines expressing very low levels of α-chain (tumor cell lines; SNB75 and RPMI-8226 compared with A549 or PC-3, MTS assay): very resistant; IC50 (DU145; DU-145, DU145, Prostate (AR-), read-out: Anti-Proliferative activity IC50): 6.2 nM; IC50 (LnCaP; LnCaP, Prostate): 16.7 nM; IC50 (PC3; PC-3, PC3, Prostate, read-out: Anti-Proliferative activity IC50): 4.1 nM; IC50 (P388; P388, Leukemia, read-out: Anti-Proliferative activity IC50): > 1000 nM; IC50 (SNB-78; SNB-78, CNS, read-out: Anti-Proliferative activity IC50): 10.1 nM; IC50 (Panc-1 (PANC); PANC-1, PANC, Pancreatic, read-out: Anti-Proliferative activity IC50): 3.8 nM; plasma half-life in human ([4]; human, according to the literature): about 40 hours; max. plasma concentration ([4]; in vivo): about 0.1 μg/mL |
| C[C@]12CC/C(=N\OCCN3CCCCC3)C=C1CC[C@@H]1[C@@H]2CC[C@]2(C)[C@@H](c3ccc(=O)oc3)CC[C@]12O [BP228] | can inhibit the stress response | 6 | 2350 | 1200 | 4.98 | 114 | 640 | 8.8 | 39.2 | 6.2 | > 1000 | 15.9 | 8.1 | tlast ([3]; 2.5 mg/kg): 6 h; Tmax ([3]; 5 mg/kg, listed as BNC228, 5 mg/kg): 5 min; AUC ([3]; mouse, plasma, ip, 2.5 mg/kg): 1020 ng·h/mL; Cmax ([3]; mouse, plasma, ip, 2.5 mg/kg): 715 ng/mL; Tmax ([3]; mouse, plasma, ip, 2.5 mg/kg, 2.5 mg/kg, read-out: tmax): 10 min; half-life ([3]; mouse, plasma, ip, 2.5 mg/kg): 90 min |
| C[C@@H]1O[C@@H](O[C@@H]2C=C3CC[C@@H]4[C@H](CC[C@]5(C)[C@@H](c6ccc(=O)oc6)CC[C@]45O)[C@@]3(C)CC2)[C@H](O)[C@H](O)[C@H]1N [BP244] | can inhibit the stress response | 24 | 4630 | 2120 | 30 | 270 | 5 to 14 | 6.7 | 13.8 | 5.7 | > 1000 | 7.7 | 6.6 | activity on Na-K-ATPase relative to BP228 (Na-K-ATPase): twice as active as BP228; IC50 (Na-K-ATPase; FIG. 9, read-out: IC50, Na-K-ATPase): 98000 nM; adverse effects (Caki-1 tumors; 15 mg/ml pump): without any adverse effects; tumor growth inhibition (TGI) (Caki-1 tumors; 15 mg/ml, s.c. Alzet pump 0.5 μl/hr): 83% |
